# Data taken from patent US6706663B2, “Herbicidal 3-heterocyclic substituted benzisothiazole and benzisoxazole compounds” (Wyeth, priority 2000, dated 2004).
# Assays:
# [1] = test system: ABUTH (Abutilon theophrasti); experiment: Preemergence herbicidal evaluation; assay type: in vivo, Medic.; conditions: rated 4-5 weeks after treatment
# [2] = test system: CHEAL (Chenopodium album); experiment: Postemergence herbicidal evaluation; assay type: in vivo, L.; conditions: postemergence
# Outline: (§1)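 Seedlings grown about two weeks in flats, sprayed, then kept under standard greenhouse care. Rated visually 4–5 weeks after treatment on a 0–9 scale (stand, vigour, malformation, size, chlorosis, overall appearance) relative to untreated control; repeat tests averaged.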
# [3] = test system: AMBEL (Ambrosia artemisifolia); experiment: Postemergence herbicidal evaluation; assay type: in vivo, L.; conditions: postemergence
# Outline: as §1
# [4] = test system: CASOB (Cassia obtusifolia); experiment: Postemergence herbicidal evaluation; assay type: in vivo, L.; conditions: postemergence
# Outline: as §1
# GALAP (Galium aparine) [5] = experiment: Postemergence herbicidal evaluation; assay type: in vivo; conditions: postemergence
# Outline: as §1
# [6] = test system: ABUTH (Abutilon theophrasti); experiment: Postemergence herbicidal evaluation; assay type: in vivo, Medic.; conditions: postemergence
# Outline: as §1
# [7] = test system: CHEAL (Chenopodium album); experiment: Preemergence herbicidal evaluation; assay type: in vivo, L.; conditions: rated 4-5 weeks after treatment
# Outline: (§2)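 Seeds planted in potting soil cups and sprayed preemergence with aqueous acetone compound solution. Greenhouse-grown; rated 4–5 weeks after treatment on a 0-9 visual scale (stand, vigor, malformation, size, chlorosis, appearance) versus control.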
# [8] = test system: AMBEL (Ambrosia artemisifolia); experiment: Preemergence herbicidal evaluation; assay type: in vivo, L.; conditions: rated 4-5 weeks after treatment
# Outline: as §2
# [9] = test system: CASOB (Cassia obtusifolia); experiment: Preemergence herbicidal evaluation; assay type: in vivo, L.; conditions: rated 4-5 weeks after treatment
# Outline: as §2
# [10] = test system: TRZAWR (Wheat, Winter, cv Riband); experiment: Preemergence herbicidal evaluation; assay type: in vivo, Triticum aestivum; conditions: rated 4-5 weeks after treatment
# Outline: as §2
# ORYSAT (Rice, Tebonnet) [11] = experiment: Postemergence herbicidal evaluation; assay type: in vivo, Oryza sativa, (L.) Tebonnet; conditions: postemergence
# Outline: as §1
# [12] = test system: ECHCG (Echinochloa crus-galli); experiment: Postemergence herbicidal evaluation; assay type: in vivo, (L.) Beau; conditions: postemergence
# Outline: as §1
# ORYSAT (Rice, Tebonnet) [13] = experiment: Flooded paddy, post-transplant rice tolerance; assay type: in vivo, Oryza sativa, (L.) Tebonnet; conditions: flooded paddy, post-transplant rice, rated 3-4 weeks after treatment, 0-9 rating scale
# Outline: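 Ten-day-old seedlings, 2/pot, silt loam; flood kept 1.5–3 cm over soil; herbicide applied post-transplant; greenhouse; score 0–9 visual vs control.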
# ZEAMX (Corn, Field) = experiment: Postemergence herbicidal evaluation; assay type: in vivo, Zea mays, L.; conditions: postemergence
# Outline: as §1
# GALAP (Galium aparine) [14] = experiment: Preemergence herbicidal evaluation; assay type: in vivo; conditions: rated 4-5 weeks after treatment
# Outline: as §2
# [15] = test system: IPOHE (Ipomoea hederacea); experiment: Preemergence herbicidal evaluation; assay type: in vivo, (L.) Jacq.; conditions: rated 4-5 weeks after treatment
# ORYSAT (Rice, Tebonnet) [16] = experiment: Preemergence herbicidal evaluation; assay type: in vivo, Oryza sativa, (L.) Tebonnet; conditions: rated 4-5 weeks after treatment
# [17] = test system: GLXMAW (Soybean, Williams); experiment: Postemergence herbicidal evaluation; assay type: in vivo, Glycine max, (L.) Merr. cv Williams; conditions: postemergence
# Outline: as §1
# [18] = test system: SAGPY (Sagittaria pygmaea); experiment: Flooded paddy, preemergence weed control; assay type: in vivo, L.; conditions: rated 3-4 weeks after treatment, 0-9 rating scale
# Outline: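 Scoring used a 0-9 visual scale relative to control. Before that, seeds or propagules were planted shallowly in silt loam and flooded to 1.5–3 cm, a depth maintained throughout, with greenhouse care during the test.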
structure (smiles),measurement,setting,value
"Cn1c(C(F)(F)F)cc(=O)n(-c2ccc3snc(-c4sccc4CBr)c3c2)c1=O [Compound 80, 3-[3-[3-(bromomethyl)-2-thienyl]-1,2-benzisothiazol-5-yl]-1-methyl-6-(trifluoromethyl)uracil]",Preemergence herbicidal rating ABUTH,[1]; Rate 0.0620 kg/ha,4.0
same,Preemergence herbicidal rating ABUTH,[1]; Rate 0.1250 kg/ha,9.0
same,Preemergence herbicidal rating ABUTH,[1]; Rate 0.2500 kg/ha,9.0
same,CHEAL herbicidal rating,[2]; rate 0.0320 kg/ha,9.0
same,CHEAL herbicidal rating,[2]; rate 0.0620 kg/ha,9.0
same,AMBEL herbicidal rating,[3]; rate 0.0320 kg/ha,7.0
same,AMBEL herbicidal rating,[3]; rate 0.0620 kg/ha,9.0
same,CASOB herbicidal rating,[4]; rate 0.0320 kg/ha,5.0
same,CASOB herbicidal rating,[4]; rate 0.0620 kg/ha,5.0
same,GALAP herbicidal rating,GALAP (Galium aparine) [5]; rate 0.0320 kg/ha,3.0
same,GALAP herbicidal rating,GALAP (Galium aparine) [5]; rate 0.0620 kg/ha,4.0
same,ABUTH herbicidal rating,[6]; rate 0.0320 kg/ha,6.0
same,ABUTH herbicidal rating,[6]; rate 0.0620 kg/ha,9.0
same,Preemergence herbicidal rating CHEAL,[7]; Rate 0.0620 kg/ha,5.5
same,Preemergence herbicidal rating CHEAL,[7]; Rate 0.1250 kg/ha,7.5
same,Preemergence herbicidal rating CHEAL,[7]; Rate 0.2500 kg/ha,9.0
same,Preemergence herbicidal rating AMBEL,[8]; Rate 0.0620 kg/ha,5.0
same,Preemergence herbicidal rating AMBEL,[8]; Rate 0.1250 kg/ha,9.0
same,Preemergence herbicidal rating AMBEL,[8]; Rate 0.2500 kg/ha,9.0
same,Preemergence herbicidal rating CASOB,[9]; Rate 0.0620 kg/ha,0.0
same,Preemergence herbicidal rating CASOB,[9]; Rate 0.1250 kg/ha,0.0
same,Preemergence herbicidal rating CASOB,[9]; Rate 0.2500 kg/ha,1.5
same,Preemergence herbicidal rating TRZAWR,[10]; Rate 0.0620 kg/ha,0.0
same,Preemergence herbicidal rating TRZAWR,[10]; Rate 0.1250 kg/ha,0.0
same,Preemergence herbicidal rating TRZAWR,[10]; Rate 0.2500 kg/ha,2.0
same,ORYSAT herbicidal rating,"ORYSAT (Rice, Tebonnet) [11]; rate 0.0320 kg/ha",3.5
same,ORYSAT herbicidal rating,"ORYSAT (Rice, Tebonnet) [11]; rate 0.0620 kg/ha",3.5
same,ECHCG herbicidal rating,[12]; rate 0.0320 kg/ha,0.0
same,ECHCG herbicidal rating,[12]; rate 0.0620 kg/ha,0.0
same,"herbicidal rating, ORYSAT (rice tolerance)","ORYSAT (Rice, Tebonnet) [13]; rate 0.0080 kg/ha",2.5
same,"herbicidal rating, ORYSAT (rice tolerance)","ORYSAT (Rice, Tebonnet) [13]; rate 0.0320 kg/ha",5.5
same,"herbicidal rating, ORYSAT (rice tolerance)","ORYSAT (Rice, Tebonnet) [13]; rate 0.1250 kg/ha",8.0
same,ZEAMX herbicidal rating,"ZEAMX (Corn, Field); rate 0.0320 kg/ha",3.5
same,ZEAMX herbicidal rating,"ZEAMX (Corn, Field); rate 0.0620 kg/ha",5.5
same,Preemergence herbicidal rating GALAP,GALAP (Galium aparine) [14]; Rate 0.0620 kg/ha,4.0
same,Preemergence herbicidal rating GALAP,GALAP (Galium aparine) [14]; Rate 0.1250 kg/ha,5.0
same,Preemergence herbicidal rating GALAP,GALAP (Galium aparine) [14]; Rate 0.2500 kg/ha,7.0
same,Preemergence herbicidal rating IPOHE,[15]; Rate 0.0620 kg/ha,0.5
same,Preemergence herbicidal rating IPOHE,[15]; Rate 0.1250 kg/ha,2.0
same,Preemergence herbicidal rating IPOHE,[15]; Rate 0.2500 kg/ha,4.0
same,Preemergence herbicidal rating ORYSAT,"ORYSAT (Rice, Tebonnet) [16]; Rate 0.0620 kg/ha",0.5
same,Preemergence herbicidal rating ORYSAT,"ORYSAT (Rice, Tebonnet) [16]; Rate 0.1250 kg/ha",2.5
same,Preemergence herbicidal rating ORYSAT,"ORYSAT (Rice, Tebonnet) [16]; Rate 0.2500 kg/ha",6.0
same,GLXMAW herbicidal rating,[17]; rate 0.0320 kg/ha,5.0
same,GLXMAW herbicidal rating,[17]; rate 0.0620 kg/ha,7.0
same,"herbicidal rating, SAGPY",[18]; rate 0.0080 kg/ha,0.0
same,"herbicidal rating, SAGPY",[18]; rate 0.0320 kg/ha,4.5
same,"herbicidal rating, SAGPY",[18]; rate 0.1250 kg/ha,7.0
